Data taken from PMC7072329, “Discovery of Kynurenines Containing Oligopeptides as Potent Opioid Receptor Agonists” (Biomolecules, 2020).
Where a SMILES comes first, the peptide text is derived from it. [ ]: non-standard residue; d: D form. Kyn = Nc1ccccc1C(=O)C[C@H](N)C(=O)O

Columns and labels:
CD-1 male mice [1] = test: tail flick test; type: in vivo; conditions: i.c.v., 10 μg/10 μL, 15 to 120 min
Experimental: (§1) In our experiments, we used CD-1 male mice (Harlan, Italy, 25–30 g) maintained in colony, housed in cages (7 mice per cage) under standard light/dark cycle (from 7:00 a.m. to 7:00 p.m.), temperature (21 ± 1 °C) and relative humidity (60% ± 10%) for at least 1 week. Food and water were available ad libitum. The Service for Biotechnology and Animal Welfare of the Istituto Superiore di Sanità and the Italian Ministry of Health authorized the experimental protocol according to Legislative Decree 26/14.
DMSO was purchased from Merck (Rome, Italy). Peptides solutions were freshly prepared using saline containing 0.9% NaCl and DMSO in the ratio DMSO/saline 1:5 v/v every experimental day. […]
The tail flick latency was obtained using a commercial unit (Ugo Basile, Gemonio, Italy), consisting of an infrared radiant light source (100 W, 15 V bulb) focused onto a photocell utilizing an aluminum parabolic mirror. […] Radiant heat was focused 3–4 cm from the tip of the tail, and the latency (s) of the tail withdrawal to the thermal stimulus was recorded. […] The baseline latency was calculated as mean of three readings recorded before testing at intervals of 15 min and the time course of latency determined at 15, 30, 45, 60, 90, and 120 min after treatment. […]
Experimental data were expressed as mean ± s.e.m. […]

CD-1 male mice [2] = test: formalin test; type: in vivo; conditions: s.c. in hind paw, 100 μg/20 μL, 15 min before formalin
Experimental: as §1
DMSO was purchased from Merck (Rome, Italy). Peptides solutions were freshly prepared using saline containing 0.9% NaCl and DMSO in the ratio DMSO/saline 1:5 v/v every experimental day. These solutions were injected at a volume of 10 μL/mouse for intracerebroventricular (i.c.v.) administrations or at a volume of 20 μL/mouse for subcutaneous administrations.
In the formalin test, the injection of a dilute solution of formalin (1%, 20 μL/paw) into the dorsal surface of the mouse hind paw evoked biphasic nociceptive behavioral responses, such as licking, biting the injected paw, or both, occurring from 0 to 10 min after formalin injection (the early phase) and a prolonged phase, occurring from 15 to 40 min (the late phase). Before the test, mice were individually placed in a Plexiglas observation cage (30 × 14 × 12 cm) for one hour, to acclimatize to the testing environment. The total time the animal spent licking or biting its paw during the early and late phase of formalin-induced nociception was recorded.
Experimental data were expressed as mean ± s.e.m. In the tail flick test, significant differences among the groups were evaluated with two-way ANOVA followed by Sidak’s multiple comparisons test. Formalin test data were analyzed by using one-way ANOVA, followed by Holm–Sidak’s multiple comparisons test. […] Statistical significance was set at p < 0.05. The data and statistical analysis comply with the recommendations on experimental design and analysis in pharmacology.
Early phase represents the formalin-induced nociceptive behavior recorded from 0 to 10 min after formalin injection; late phase is for the formalin-induced nociceptive behavior recorded from 15 to 40 min after formalin injection. V is for vehicle-treated animals. Statistical analysis: one-way ANOVA followed by Holm–Sidak’s multiple comparisons test. ** is for p < 0.01 and *** is for p < 0.001 vs. V. n = 7.

## C[C@@H](NC(=O)[C@@H](N)Cc1ccc(O)cc1)C(=O)NCC(=O)N[C@@H](Cc1ccccc1)C(=O)N[C@@H](CC(=O)c1ccccc1N)C(N)=O [Peptide K6] (H-Y[dA]GF[Kyn]-NH2)
CD-1 male mice [1]
  effect on time of response to thermal nociceptive stimuli (tail flick): greatly increase the time of response to thermal nociceptive stimuli
CD-1 male mice [2]; 0 to 10 min
  formalin-induced nociceptive behavior, early phase: able to reduce the nociceptive response to formalin in the early phase
CD-1 male mice [2]; 15 to 40 min
  formalin-induced nociceptive behavior, late phase: light but not significant reduction
